Laboratory results taken from patent publication US6359133B2, “Halogen pyrimidinyl aryl (thio) ethers as pesticides” (Bayer Aktiengesellschaft, priority 1996, dated 2002).

Legend:
Pyriculaia oryzae = assay type: in vivo; conditions: rice, protective, 750 g/ha, evaluation 4 days after inoculation, vs untreated control
[1] = tested on: Erysiphe graminis f.sp. hordei; test: Erysiphe test (barley)/protective; assay type: in vivo; conditions: protective, 250 g/ha, evaluation 7 days after inoculation, vs untreated control
Protocol: Erysiphe Test (barley)/Protective Solvent: 10 parts by weight of N-methyl-pyrrolidone. Emulsifier: 0.6 part by weight of alkylaryl polyglycol ether. To produce a suitable preparation of active compound, 1 part by weight of active compound is mixed with the stated amounts of solvent and emulsifier, and the concentrate is diluted with water to the desired concentration. To test for protective activity, young plants are sprayed with the preparation of active compound at the stated application rate. After the spray coating has dried on, the plants are dusted with spores of Erysiphe graminis f.sp. hordei.

[2] = logP determination by HPLC (EEC Directive 79/831 Annex V. A8); conditions: gradient method, acetonitrile/0.1% aqueous phosphoric acid

SMILES | efficacy (Pyriculaia oryzae) | other results
CNC(=O)/C(=N/OC)c1ccccc1Oc1ncnc(Oc2ccccc2Cl)c1F [Example 1, 2-{2-[6-(2-chlorophenoxy)-5-fluoro-pyrimidine4-yloxy]-phenyl}-2-methoxyimino-N-methylacetamide] | 80% | 
CNC(=O)/C(=N/OC)c1ccccc1Oc1ncnc(Oc2ccccc2C)c1F [Example 2, 2-[2-(5-fluoro-6-o-tolyloxy-pyrimidin-4-yloxy)-phenyl]-2-methoxyimino-N-methyl-acetamide] | 80% | efficacy [1]: 100%; chromatographic logP (physchem): 3.04
CNC(=O)C(=NOC)c1ccccc1Oc1ncnc(Oc2ccccc2C#N)c1F [Example 4] | 80% | 
C=CCOc1ccccc1Oc1ncnc(Oc2ccccc2C(=NOC)C(=O)NC)c1F [Example 8] | 80% | efficacy [1]: 100%
CCC(=O)Oc1ccccc1Oc1ncnc(Oc2ccccc2C(=NOC)C(=O)NC)c1F [Example 9] | 80% | 
CON=C(C(N)=O)c1ccccc1Oc1ncnc(Oc2ccccc2Cl)c1F [Example 10] | 80% | 
CNC(=O)C(=NOC)c1ccccc1Oc1ncnc(Oc2ccc(Cl)cc2Cl)c1F [Example 15] |  | logP [2]: 3.61
CNC(=O)C(=NOC)c1ccccc1Oc1ncnc(Oc2cc(C)ccc2C)c1F [Example 20] | 80% | 
CNC(=O)C(=NOC)c1ccccc1Oc1ncnc(Oc2c(C)cccc2C)c1F [Example 21] | 80% | 
CNC(=O)C(=NOC)c1ccccc1Oc1ncnc(Oc2ccc(C)cc2Cl)c1F [Example 22] | 80% | 
CNC(=O)C(=NOC)c1ccccc1Oc1ncnc(Oc2cccc(Cl)c2C)c1F [Example 24] | 80% | 
CO/N=C(/C(N)=O)c1ccccc1O [Example II-1, 2-(2-hydroxy-phenyl)-2-methoxyimino-acetamide] |  | chromatographic logP (physchem): 0.83
